Our source for the GI50 and intracellular copper content values is paper PMC4171606, “A novel copper(I) complex induces ER-stress-mediated apoptosis and sensitizes B-acute lymphoblastic leukemia cells to chemotherapeutic agents” (Oncotarget, 2014).

Format in all cases: cell-based, human
Series [1] deals with REH (B-acute lymphoblastic leukemia). The experiment in a line: MTT growth inhibition, 72 h. The conditions noted are these: mean ± SE. The method, then:
(§1) [Cu(thp)4][PF6] (CP) was evaluated for its growth inhibition activity on a panel of twelve different human leukemia cell lines (five B-acute lymphoblastic leukemia, three T-acute lymphoblastic leukemia, three acute myeloid leukemia and one chronic myeloid leukemia). Cells were treated for 72 h with CP and cell viability was evaluated by MTT test. […] This abnormal high expression of proteasomal proteins and mRNA seem to be correlated to the hyperproliferation of these cancer cells and to the sensitivity towards proteasome inhibitors.
(§2) The human leukemia cell lines RS 4;11, SEM, REH, RCH-ACV, MHH-CALL2, Jurkat, CCRF-CEM, HSB2, HL-60, K562, THP-1, MV4;11 were purchased from the American Type Culture Collection. Cells were cultured in RPMI 1640 (Life Technologies, Italy) supplemented with 10% fetal bovine serum (FBS), glutamine (2 mM; Life Technologies, Italy), penicillin (100 U/ml; Life Technologies, Italy) and streptomycin (100 μg/ml; Life Technologies, Italy), and maintained at 37°C in a humidified atmosphere with 5% CO2. The cytotoxic activity of CP was determined using a standard 3-[4,5-dimethylthiazol-2-yl]-2,5-diphenyltetrazodium bromide (MTT) based colorimetric assay (Sigma-Aldrich, Italy). Briefly, cells were seeded at a density of 2×10^4 cells/well in 96-well microtiter plates. After 24 h, cells were exposed to the test compound. After different times, cell survival was determined by the addition of an MTT solution as previously described.

The subject of series [2] is RCH-ACV (B-acute lymphoblastic leukemia). In words: MTT growth inhibition, 72 h. The conditions noted are these: mean ± SE. The method, then:
as §1, §2

Series [3] relates to Jurkat (T-acute lymphoblastic leukemia). In words: MTT growth inhibition, 72 h. The conditions noted are these: mean ± SE. The method, then:
as §1, §2

Series [4] deals with HSB-2 (T-acute lymphoblastic leukemia). The experiment in a line: MTT growth inhibition, 72 h. As to conditions: HSB-2, 72 h, mean ± SE. The method, then:
as §1, §2

The subject of series [5] is MV4;11 (acute myeloid leukemia). The experiment in a line: MTT growth inhibition, 72 h. The conditions noted are these: MV4;11, 72 h, mean ± SE. As to the method:
as §1, §2

Series [6] concerns RS4;11 (B-acute lymphoblastic leukemia). The experiment in a line: MTT growth inhibition, 72 h. The conditions noted are these: RS4;11, 72 h, mean ± SE. As to the method: as §1, §2
Series [7] relates to K562 (chronic myeloid leukemia). The experiment in a line: MTT growth inhibition, 72 h. The conditions noted are these: K562, 72 h, mean ± SE. The method, then: as §1, §2
For series [8], the system named is MHH-CALL2 (B-acute lymphoblastic leukemia). In words: MTT growth inhibition, 72 h. As to conditions: MHH-CALL2, 72 h, mean ± SE. The method, then:
as §1, §2

Series [9] relates to SEM (B-acute lymphoblastic leukemia). In words: MTT growth inhibition, 72 h. As to conditions: mean ± SE. As to the method:
as §1, §2

For series [10], the system named is THP-1 (acute myeloid leukemia). In words: MTT growth inhibition, 72 h. As to conditions: THP-1, 72 h, mean ± SE. As to the method: as §1, §2
In series [11] the test system is HL60 (promyelocytic leulemia). The experiment in a line: MTT growth inhibition, 72 h. As to conditions: HL60, 72 h, mean ± SE. As to the method: as §1, §2
In series [12] the test system is CCRF-CEM (T-acute lymphoblastic leukemia). In words: MTT growth inhibition, 72 h. As to conditions: mean ± SE. As to the method:
as §1, §2

The subject of series [13] is RS4;11, SEM, Jurkat and THP-1 cell lines and PBMC from healthy donors. In words: Cellular uptake, intracellular copper by GF-AAS. The conditions noted are these: 6.25, 12.5 and 25 μM CP, 24 h, leukemic cells vs healthy PBMC. The method, then: In an attempt to correlate the cytotoxic activity of CP with its cellular uptake, the intracellular copper content was evaluated in RS4;11, SEM, Jurkat and THP-1 cell lines and PBMC from healthy donors treated for 24 h with increasing concentrations of CP. The intracellular copper amount (Figure 1, panel A) was quantified by GF-AAS analysis (Graphite Furnace Atomic Absorption Spectrometry).
FIGURE 1 CP uptake and effects on cell cycle and apoptosis induction A) RS4;11, SEM, THP1, Jurkat cell lines and healthy PBMC were incubated with 6.25, 12.5 and 25 μM of CP for 24 h. The intracellular accumulation of CP was detected by GF-AAS analysis. B) SEM and RS4;11 cells were treated with the indicated concentrations of CP for 24 h, cell cycle distribution and Sub-G1 contents were analyzed by flow cytometry after cell staining with PI. The percentages of each phase of the cell cycle (G1, S, G2/M) were calculated on living cells whereas the percentages of cells with hypodiploid DNA content peak (subG1) was referred to cell population characterized by the appearance of subG1 peak. C) SEM and RS4;11 cells were incubated with 2.5 μM CP for the indicated times and analyzed by flow cytometry after double staining with Annexin-V-FITC and PI. Data are represented as mean ± S.E.M. of three independent experiments. […]

As a reminder, the GI50 is the concentration giving 50% growth inhibition. Turning to `F[P-](F)(F)(F)(F)F.OCP(CO)CO.OCP(CO)CO.OCP(CO)CO.OCP(CO)CO.[Cu+]` [CP, [Cu(thp)4][PF6]], the GI50 came out at 4.2 ± 0.2 µM in series [1]; 0.9 ± 0.2 µM in series [2]; 16.7 ± 2.6 µM in [3]; 15.1 ± 0.26 µM in series [4]; 1.2 ± 0.2 µM in series [5]; 0.3 ± 0.01 µM in series [6]. Also, the GI50 in [7] stood at 23.2 ± 1 µM; in series [8] it was 1.9 ± 0.1 µM; in [9], 1.6 ± 0.06 µM; in series [10], 17.2 ± 1 µM; in series [11], 12.1 ± 2.8 µM; in series [12], 3.9 ± 0.22 µM. Moreover, the intracellular copper content entry in [13] was “marked increase of copper intracellular content in comparison with healthy PBMC”.
